From PubChem BioAssay AID2060887 (Molecular Pharmacology Branch, DTP, NCI, 2025)

System: 782815-120-R-J1-PDC complex spheroid viability
Assay: Anticancer human tumor 782815-120-R-J1-PDC patient-derived colon adenocarcinoma cell line growth inhibition [RAS]
Settings: for IC50: curve of first compound; for viability, T/C: stronger effect = lower value
Method in brief: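 Tumour cells grown as complex spheroids with HUVEC endothelial cells and mesenchymal stem cells, treated with RAS pathway inhibitor combinations. Each agent spans half-log steps from near clinical Cmax, or 10 microM where Cmax is unknown.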

[1] = second compound 0.000949 µM, first compound 0.0316 µM
[2] = second compound 0.000949 µM, first compound 0.1 µM
[3] = second compound 0.000949 µM, first compound 0.316 µM
[4] = second compound 0.000949 µM, first compound 1 µM
[5] = second compound 0.000949 µM, first compound 3.16 µM
[6] = second compound 0.000949 µM, first compound 10 µM
[7] = second compound 0.003 µM, first compound 0.0316 µM
[8] = second compound 0.003 µM, first compound 0.1 µM
[9] = second compound 0.003 µM, first compound 0.316 µM
[10] = second compound 0.003 µM, first compound 1 µM
[11] = second compound 0.003 µM, first compound 3.16 µM
[12] = second compound 0.003 µM, first compound 10 µM
[13] = second compound 0.00949 µM, first compound 0.0316 µM
[14] = second compound 0.00949 µM, first compound 0.1 µM
[15] = second compound 0.00949 µM, first compound 0.316 µM
[16] = second compound 0.00949 µM, first compound 1 µM
[17] = second compound 0.00949 µM, first compound 3.16 µM
[18] = second compound 0.00949 µM, first compound 10 µM
[19] = second compound 0.03 µM, first compound 0.0316 µM
[20] = second compound 0.03 µM, first compound 0.1 µM
[21] = second compound 0.03 µM, first compound 0.316 µM
[22] = second compound 0.03 µM, first compound 1 µM
[23] = second compound 0.03 µM, first compound 3.16 µM
[24] = second compound 0.03 µM, first compound 10 µM
[25] = second compound 0.0949 µM, first compound 0.0316 µM
[26] = second compound 0.0949 µM, first compound 0.1 µM
[27] = second compound 0.0949 µM, first compound 0.316 µM
[28] = second compound 0.0949 µM, first compound 1 µM
[29] = second compound 0.0949 µM, first compound 3.16 µM
[30] = second compound 0.0949 µM, first compound 10 µM
[31] = second compound 0.3 µM, first compound 0.0316 µM
[32] = second compound 0.3 µM, first compound 0.1 µM
[33] = second compound 0.3 µM, first compound 0.316 µM
[34] = second compound 0.3 µM, first compound 1 µM
[35] = second compound 0.3 µM, first compound 3.16 µM
[36] = second compound 0.3 µM, first compound 10 µM
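Note: spheroids exposed to compounds for 7 days before reading.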
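Throughout, for viability, T/C: 100% = DMSO vehicle control viability.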

Compound `Cc1nc(N2CCC3(CC2)COC(C)C3N)c(CO)nc1Sc1ccnc(N)c1Cl` (stereo not drawn) + CCn1c(-c2cc(N3CCN(C)CC3)cnc2C(C)OC)c2c3cc(ccc31)-c1csc(n1)CC(NC(=O)C1CC1C)C(=O)N1CCCC(N1)C(=O)OCC(C)(C)C2 has an IC50 (second compound 0.000949 µM) greater than 10 µM, an IC50 (second compound 0.003 µM) greater than 10 µM and an IC50 (second compound 0.00949 µM) of less than 0.0316 µM. The IC50 (second compound 0.03 µM) was less than 0.0316 µM, the IC50 (second compound 0.0949 µM) was less than 0.0316 µM and the IC50 (second compound 0.3 µM) was less than 0.0316 µM. For the same compound, the viability, T/C [1] was 73.5%, the viability, T/C [2] was 79.3% and the viability, T/C [3] was 74.7%. It also gave a viability, T/C [4] of 73%, a viability, T/C [5] of 69.4% and a viability, T/C [6] of 69.9%. It also gave a viability, T/C [7] of 58.5%, a viability, T/C [8] of 54.6% and a viability, T/C [9] of 56%. For the same compound, the viability, T/C [10] was 49%, the viability, T/C [11] was 58.4% and the viability, T/C [12] was 49%. The viability, T/C [13] was 29.1%, the viability, T/C [14] was 28.2% and the viability, T/C [15] was 24.1%. The viability, T/C [16] was 32.1%, the viability, T/C [17] was 30.3% and the viability, T/C [18] was 28.3%. For the same compound, the viability, T/C [19] was 17.8%, the viability, T/C [20] was 19% and the viability, T/C [21] was 18.6%. The viability, T/C [22] was 18.5%, the viability, T/C [23] was 22.9% and the viability, T/C [24] was 19.3%. For the same compound, the viability, T/C [25] was 15.9%, the viability, T/C [26] was 17% and the viability, T/C [27] was 14.5%. For the same compound, the viability, T/C [28] was 15.5%, the viability, T/C [29] was 17.3% and the viability, T/C [30] was 15.4%. The viability, T/C [31] was 14.3%, the viability, T/C [32] was 13.8% and the viability, T/C [33] was 15.9%. The viability, T/C [34] was 16.4%, the viability, T/C [35] was 21.3% and the viability, T/C [36] was 18.6%.

For `CC(Nc1ccc2c(c1)OCCn1cc(N3C(=O)OCC3C(F)F)nc1-2)C(N)=O` (stereo not drawn) + CCn1c(-c2cccnc2C(C)OC)c2c3cc(ccc31)N1CCOC(CC(NC(=O)C(C(C)C)N(C)C(=O)C3(F)CCN(C(=O)C#CC(C)(C)N(C)C)CC3)C(=O)N3CCCC(N3)C(=O)OCC(C)(C)C2)C1, the IC50 (second compound 0.000949 µM) was greater than 10 µM, the IC50 (second compound 0.003 µM) was greater than 10 µM and the IC50 (second compound 0.00949 µM) was greater than 10 µM. It also gave an IC50 (second compound 0.03 µM) greater than 10 µM, an IC50 (second compound 0.0949 µM) greater than 10 µM and an IC50 (second compound 0.3 µM) greater than 10 µM. For the same compound, the viability, T/C [1] was 93.3%, the viability, T/C [2] was 93.9% and the viability, T/C [3] was 82.2%. For the same compound, the viability, T/C [4] was 95.2%, the viability, T/C [5] was 99.2% and the viability, T/C [6] was 81.4%. For the same compound, the viability, T/C [7] was 93.6%, the viability, T/C [8] was 94.5% and the viability, T/C [9] was 93%. The viability, T/C [10] was 90.8%, the viability, T/C [11] was 93.5% and the viability, T/C [12] was 97.5%. For the same compound, the viability, T/C [13] was 93.4%, the viability, T/C [14] was 101% and the viability, T/C [15] was 91.1%. It also gave a viability, T/C [16] of 95.4%, a viability, T/C [17] of 93.8% and a viability, T/C [18] of 90.8%. For the same compound, the viability, T/C [19] was 90.7%, the viability, T/C [20] was 97% and the viability, T/C [21] was 90.4%. It also gave a viability, T/C [22] of 89.9%, a viability, T/C [23] of 102% and a viability, T/C [24] of 93.2%. The viability, T/C [25] was 85.9%, the viability, T/C [26] was 95.3% and the viability, T/C [27] was 81%. It also gave a viability, T/C [28] of 98.9%, a viability, T/C [29] of 106% and a viability, T/C [30] of 94.8%. It also gave a viability, T/C [31] of 95.1%, a viability, T/C [32] of 92% and a viability, T/C [33] of 90%. The viability, T/C [34] was 82.8%, the viability, T/C [35] was 94.6% and the viability, T/C [36] was 87.3%.

Work on `CC1(O)CCCC1n1c(=O)c(C(F)F)cc2cnc(NC3CCN(S(C)(=O)=O)CC3)nc21` (stereo not drawn) + C=CC(=O)N1CCN(c2nc(OCC3CCCN3C)nc3c(F)c(-c4nc(N)cc(C)c4C(F)(F)F)c(Cl)cc23)C(C)C1 yielded an IC50 (second compound 0.00316 µM) of 3.64 µM, an IC50 (second compound 0.01 µM) of 2.36 µM and an IC50 (second compound 0.0316 µM) of 3.38 µM. For the same compound, the IC50 (second compound 0.1 µM) was 3.61 µM, the IC50 (second compound 0.316 µM) was 3.45 µM and the IC50 (second compound 1 µM) was 0.786 µM. The viability, T/C (second compound 0.00316 µM, first compound 0.0316 µM) was 61.5%, the viability, T/C (second compound 0.00316 µM, first compound 0.1 µM) was 53% and the viability, T/C (second compound 0.00316 µM, first compound 0.316 µM) was 54.5%. It also gave a viability, T/C (second compound 0.00316 µM, first compound 1 µM) of 57.6%, a viability, T/C (second compound 0.00316 µM, first compound 3.16 µM) of 53.8% and a viability, T/C (second compound 0.00316 µM, first compound 10 µM) of 22%. It also gave a viability, T/C (second compound 0.01 µM, first compound 0.0316 µM) of 72.5%, a viability, T/C (second compound 0.01 µM, first compound 0.1 µM) of 52.3% and a viability, T/C (second compound 0.01 µM, first compound 0.316 µM) of 53.3%. For the same compound, the viability, T/C (second compound 0.01 µM, first compound 1 µM) was 51.8%, the viability, T/C (second compound 0.01 µM, first compound 3.16 µM) was 52.1% and the viability, T/C (second compound 0.01 µM, first compound 10 µM) was 19%. For the same compound, the viability, T/C (second compound 0.0316 µM, first compound 0.0316 µM) was 58.7%, the viability, T/C (second compound 0.0316 µM, first compound 0.1 µM) was 56.4% and the viability, T/C (second compound 0.0316 µM, first compound 0.316 µM) was 49.2%. It also gave a viability, T/C (second compound 0.0316 µM, first compound 1 µM) of 55.1%, a viability, T/C (second compound 0.0316 µM, first compound 3.16 µM) of 51.8% and a viability, T/C (second compound 0.0316 µM, first compound 10 µM) of 22.1%. For the same compound, the viability, T/C (second compound 0.1 µM, first compound 0.0316 µM) was 65.4%, the viability, T/C (second compound 0.1 µM, first compound 0.1 µM) was 50.7% and the viability, T/C (second compound 0.1 µM, first compound 0.316 µM) was 51.3%. For the same compound, the viability, T/C (second compound 0.1 µM, first compound 1 µM) was 52.3%, the viability, T/C (second compound 0.1 µM, first compound 3.16 µM) was 54.2% and the viability, T/C (second compound 0.1 µM, first compound 10 µM) was 18.6%. For the same compound, the viability, T/C (second compound 0.316 µM, first compound 0.0316 µM) was 56.4%, the viability, T/C (second compound 0.316 µM, first compound 0.1 µM) was 52.8% and the viability, T/C (second compound 0.316 µM, first compound 0.316 µM) was 48.9%. The viability, T/C (second compound 0.316 µM, first compound 1 µM) was 50.9%, the viability, T/C (second compound 0.316 µM, first compound 3.16 µM) was 53.4% and the viability, T/C (second compound 0.316 µM, first compound 10 µM) was 19.8%. For the same compound, the viability, T/C (second compound 1 µM, first compound 0.0316 µM) was 61%, the viability, T/C (second compound 1 µM, first compound 0.1 µM) was 55.7% and the viability, T/C (second compound 1 µM, first compound 0.316 µM) was 47.5%. It also gave a viability, T/C (second compound 1 µM, first compound 1 µM) of 46.7%, a viability, T/C (second compound 1 µM, first compound 3.16 µM) of 44.9% and a viability, T/C (second compound 1 µM, first compound 10 µM) of 18.3%.

`NC1c2ccccc2OC12CCN(c1cnc3c(N4CCCc5ncccc54)n[nH]c3n1)CC2` (stereo not drawn) + CCn1c(-c2cccnc2C(C)OC)c2c3cc(ccc31)N1CCOC(CC(NC(=O)C(C(C)C)N(C)C(=O)C3(F)CCN(C(=O)C#CC(C)(C)N(C)C)CC3)C(=O)N3CCCC(N3)C(=O)OCC(C)(C)C2)C1 was tested, and the IC50 (second compound 0.000949 µM) was greater than 10 µM, the IC50 (second compound 0.003 µM) was greater than 10 µM and the IC50 (second compound 0.00949 µM) was greater than 10 µM. The IC50 (second compound 0.03 µM) was greater than 10 µM, the IC50 (second compound 0.0949 µM) was greater than 10 µM and the IC50 (second compound 0.3 µM) was greater than 10 µM. It also gave a viability, T/C [1] of 97.9%, a viability, T/C [2] of 105% and a viability, T/C [3] of 108%. The viability, T/C [4] was 105%, the viability, T/C [5] was 93.9% and the viability, T/C [6] was 77.7%. It also gave a viability, T/C [7] of 91.5%, a viability, T/C [8] of 104% and a viability, T/C [9] of 101%. It also gave a viability, T/C [10] of 89.4%, a viability, T/C [11] of 102% and a viability, T/C [12] of 85.8%. The viability, T/C [13] was 96.2%, the viability, T/C [14] was 109% and the viability, T/C [15] was 91.5%. The viability, T/C [16] was 93.2%, the viability, T/C [17] was 100% and the viability, T/C [18] was 76.7%. It also gave a viability, T/C [19] of 88.5%, a viability, T/C [20] of 106% and a viability, T/C [21] of 95.1%. It also gave a viability, T/C [22] of 98.5%, a viability, T/C [23] of 91.2% and a viability, T/C [24] of 80.3%. The viability, T/C [25] was 89.1%, the viability, T/C [26] was 93% and the viability, T/C [27] was 92.6%. For the same compound, the viability, T/C [28] was 99.7%, the viability, T/C [29] was 103% and the viability, T/C [30] was 76.5%. It also gave a viability, T/C [31] of 90.8%, a viability, T/C [32] of 91.6% and a viability, T/C [33] of 85.8%. It also gave a viability, T/C [34] of 92.5%, a viability, T/C [35] of 88.6% and a viability, T/C [36] of 73.4%.
